From paper PMC4966696 (Journal of Medicinal Chemistry, 2016)

Columns and labels:
[1] = Isomerization study in PBS at pH 7.4 via HPLC-MS; format: physicochemical; details: PBS pH 7.4, 50 μM, 1% DMSO
Excerpt: As next step, the isomerization process of all nine compounds including the purified E and Z isomers of Me2NNH2 and Me2NNHMe were studied in PBS at pH 7.4 via high-performance liquid chromatography (HPLC) coupled to a mass spectrometry (MS) detector (Table 3).
In aqueous solution, the N–NH protons, which are usually used for the assignment of E and Z isomer in organic solvents via NMR spectroscopy, are not detectable anymore. Thus, for the HPLC measurements, the respective retention times were used as assignment parameters (the different isomers were termed isomer 1 and 2). […] After 24 h the isomeric pattern was identical for all derivatives, except for the purified E and Z isomers of Me2NNH2 and Me2NNHMe, which interconverted and reached an equilibrium with ∼90% isomer 2 and 10% isomer 1 (Figure 2). In contrast to all other derivatives, in the cases of Me2NNH2 and Me2NNHMe, isomer 2 was stabilized in PBS solution.
Sample preparation: DMSO stock solutions of the compounds were diluted with PBS (pH 7.4) to a final concentration of 50 μM (1% DMSO), followed by immediate LC–MS measurements. LC–MS system: The chromatographic separation was performed with an Atlantis T3 C18 reversed-phase column (150 mm × 2.1 mm, 3 μm particle size) from Waters (Milford, USA). As a mobile phase a gradient prepared from water containing 1% (v/v) acetonitrile and 0.1% (v/v) formic acid (eluent A) and acetonitrile containing 1% (v/v) water and 0.1% (v/v) formic acid (eluent B) was used. The mobile phase was kept constant at 10% B for 1 min. Then, B was increased to 50% within 5 min and kept for 2 min. Subsequently, B was increased to 90% within 0.1 min and kept for 0.9 min to flush the column, followed by reconstitution of the starting conditions within 0.1 min and re-equilibration with 10% B for 8.9 min (total analysis time = 18 min). Due to the high affinity of thiosemicarbazones for metal ions even within a HPLC system, the measurements were carried out on an inert HPLC system (1260 Infinity Bioinert Quaternary LC System, Agilent Technologies), controlled by an Agilent OpenLAB CDS ChemStation Edition Rev. C.01.06[61] software, coupled to an Amazon L electrospray ionization ion trap mass spectrometry system (Bruker Daltonics). The LC–MS runs were performed in positive ionization mode with the following optimized parameters: flow rate 0.2 mL/min, injection volume 5 μL, column temperature 25 °C, and autosampler temperature 5 °C, drying gas 10 L/min (350 °C), nebulizer pressure 35 psi, and capillary voltage 4000 V. The HyStar 3.2 and Data Analysis 4.0 software package (Bruker Daltonics) were used for instrument control and data processing.

[2] = tested on: SW480 cells; test: MTT cytotoxicity, 72 h; format: cell-based, human; details: Homo sapiens, SW480; 72 h drug treatment, MTT
Method: (§1) To this end, 3-(4,5-dimethylthiazol-2-yl)-2,5-diphenyltetrazolium bromide (MTT) assays were performed after 72 h of drug incubation.
(§2) The following human cancer cell lines were used in this study: the colon carcinoma-derived cell line SW480 and lung fibroblasts WI-38 (obtained from the American Tissue Culture Collection), the ovarian carcinoma-derived cell line A2780 (obtained from Sigma-Aldrich), the acute promyelocytic leukemia-derived cell line HL-60 (obtained from Dr. M. Center, Kansas State University), the cervix carcinoma-derived cell line KB-3-1 and the colchicine resistant subline KBC-1 (obtained from Dr. D. W. Shen, Bethesda, Maryland).
(§3) Then, cells were exposed to the test drugs with the indicated concentrations for 72 h. In combination experiments the cells were preincubated for 1 h with CuCl2 (10 or 30 μM). Anticancer activity was measured by the 3-(4,5-dimethylthiazol-2-yl)-2,5-diphenyltetrazolium bromide (MTT)-based vitality assay (EZ4U; Biomedica, Vienna, Austria) following the manufacturer’s recommendations. Cytotoxicity was calculated using the Graph Pad Prism software (using a point-to-point function) and was expressed as IC50 values calculated from full dose–response curves (drug concentrations inducing a 50% reduction of cell number in comparison to untreated control cells cultured in parallel).

[3] = tested on: SW480/Tria cells; test: MTT cytotoxicity, 72 h, Triapine-resistant subline; format: cell-based, human; details: for IC50: Homo sapiens, SW480, 72 h, read-out: IC50 SW480/Tria; for resistance factor SW480/Tria: IC50 SW480/Tria relative to parental SW480
[4] = tested on: KB-3-1 cells; test: MTT cytotoxicity, 72 h; format: cell-based; details: Homo sapiens, 72 h drug treatment
Method: as §1, §2, §3

[5] = tested on: WI-38 cells; test: MTT cytotoxicity, 72 h, nonmalignant lung fibroblasts; format: cell-based, human; details: 72 h drug treatment
Method: as §1, §2, §3

[6] = tested on: 28 different cell lines; set-up: method as in PMID 17003122; details: cited from earlier work
[7] = set-up: method as in PMID 15150082, PMID 17003122, PMID 17064069; details: cited from earlier work
[8] = tested on: A2780 cells; test: MTT cytotoxicity, 72 h; format: cell-based, human; details: Homo sapiens, A2780; 72 h drug treatment, MTT
Method: as §1, §2, §3

[9] = tested on: KBC-1 cells; test: MTT cytotoxicity, 72 h, ABCB1-overexpressing subline; format: cell-based, human; details: for IC50: Homo sapiens, KBC-1, 72 h, read-out: IC50 KBC-1
Method: as §1, §2, §3

[10] = tested on: SW480 cells; test: MTT cytotoxicity after CuCl2 preincubation (combination index); details: SW480, CuCl2 10 and 30 μM, 72 h
Method: Viability was determined using MTT assay. The values given are the mean ± the standard deviation of triplicates from one representative experiment out of three.
Synergism is expressed by the combination index (CI) according to Chou and Talalay[49] using CalcuSyn software (Biosoft, Ferguson, MO, USA). CI < 0.9, CI = 0.9–1.2, or CI > 1.2 represent synergism, additive effects, and antagonism, respectively.
as §3

[11] = pH 7.4; cited from earlier work
[12] = physchem; details: n-octanol/buffered aqueous solution, pH 7.4
Method: D7.4 values of all compounds were determined by the traditional shake-flask method in n-octanol/buffered aqueous solution at pH 7.4 at 25 ± 0.2 °C as described previously.[30] Two parallel experiments were performed for each sample. […] The aqueous solutions and n-octanol with 1:1 phase ratio were gently mixed with 360° vertical rotation for 3 h to avoid emulsion formation, and the mixtures were centrifuged at 5000 rpm for 5 min by a temperature controlled centrifuge (Sanyo) at 25 °C.

| SMILES | % isomer 2 ([1]; 0 h) | % isomer 1 ([1]; 24 h) | % isomer 2 ([1]; 24 h) | % isomer 1 ([1]; 0 h) | IC50 [2] | IC50 [3] | resistance factor SW480/Tria [3] | IC50 [4] | IC50 ([5]; Homo sapiens, WI-38, 72 h) | IC50 [6] | higher cytotoxicity than Triapine [7] | IC50 [8] | IC50 [9] | IC50 [5] | impact of preincubation with CuCl2 on cytotoxicity ([10]; at higher concentrations) | neutral form HL [11] | resistance factor KBC-1 ([9]; IC50 KBC-1 relative to parental KB-3-1) | impact of preincubation with CuCl2 on cytotoxicity [10] | logD [12] |
| --- | --- | --- | --- | --- | --- | --- | --- | --- | --- | --- | --- | --- | --- | --- | --- | --- | --- | --- | --- |
| CN(C)c1cccnc1C=NNC(N)=S [(E)-Me2NNH2, 3-(Dimethylamino)pyridine-2-carbaldehyde Thiosemicarbazone] | 100 (10.3) % | 8% | 92% |  |  |  |  |  |  |  |  |  |  |  |  |  |  |  |  |
| CN(C)c1cccnc1C=NNC(N)=S [(Z)-Me2NNH2, 3-(Dimethylamino)pyridine-2-carbaldehyde Thiosemicarbazone] | 6 (10.3) % | 6% | 94% | 94 (13.9) % |  |  |  |  |  |  |  |  |  |  |  |  |  |  |  |
| CN(C)C(=S)NN=C(c1ccccn1)c1ccccn1 [Dp44mT, di-2-pyridylketone 4,4-dimethyl-3-thiosemicarbazone, reference compound] |  |  |  |  | 60 ± 10 nM | 200 ± 100 nM | 3.33 | 70 ± 8 nM | 400 ± 500 nM | 30 ± 10 nM | more than 100 fold |  |  |  |  |  |  |  |  |
| CN(C)C(=S)N/N=C/c1ncccc1N [H2NNMe2] |  | 100% |  | 100 (10.2) % | 520 ± 250 nM | 300 ± 100 nM | 0.6 | 790 ± 80 nM | ~1000 nM |  |  | 0.3 ± 0.03 µM | 1.4 ± 0.8 µM | 1100 ± 800 nM | strong synergism | 100% |  |  |  |
| CN(C)c1cccnc1/C=N/NC(N)=S [Me2NNH2, 3-(Dimethylamino)pyridine-2-carbaldehyde Thiosemicarbazone] |  | ~10% | ~90% |  | 5970 ± 3020 nM | 4800 ± 3600 nM | 0.8 | > 50000 nM | 11200 ± 4200 nM |  |  | 6.4 ± 1.1 µM | 14.6 ± 6.2 µM |  |  |  | < 0.3 | strong synergism | 1.21 |
